Experimental findings from publication PMC6113202 are described below.

The test system of data set [1] is Scram (DNA, duplex) GTCGTTCTGATCCAGGTGATGTAGTCGACG/CGTCGACTACATCACCTGGATCAGAACGAC
Kind of data set: fluorescence turn-on. Conditions: KCl 150 mM in p53 buffer (80% v/v); NaCl 50 mM in DNA buffer (15% v/v); NaPi pH 7.2, DTT, Tris-HCl, 5% DMSO; room temperature; dye 100 nM.

The test system of data set [2] is hairpin p21 RE (DNA, hairpin) GAAGAAGACTGGGCATGTCTAAAAAAGACATGCCCAGTCTTCTTC
Briefly: fluorescence titration. To be noted: KCl 150 mM in p53 buffer (80% v/v), NaCl 50 mM in DNA buffer (15% v/v), per base pair, approximate, NaPi pH 7.2, DTT, Tris-HCl, room temperature, dye 100 nM.

The test system of data set [3] is p21 (DNA, duplex) TAGAGGAAGAAGACTGGGCATGTCTGGGCA/TGCCCAGACATGCCCAGTCTTCTTCCTCTA
Briefly: fluorescent intercalator displacement by p53. To be noted: KCl 150 mM in p53 buffer (80% v/v); NaCl 50 mM in DNA buffer (15% v/v); 1 μM DNA, 10 μM dye; dye displaced by p53; NaPi pH 7.2, DTT, Tris-HCl, 5% DMSO.

Data set [4] relates to RGC (DNA, duplex) CACATGCCTTGCCTGGACTTGCCT/AGGCAAGTCCAGGCAAGGCATGTG
Briefly: fluorescent intercalator displacement by p53. Conditions: KCl 150 mM in p53 buffer (80% v/v); NaCl 50 mM in DNA buffer (15% v/v); 1 μM DNA, 10 μM dye; dye displaced by p53; NaPi pH 7.2, DTT, Tris-HCl, 5% DMSO.

Data set [5] has as its system IGF-BP3 (DNA, duplex) CTAGAAAACAAGCCACCAACATGCTTGCATG/CATGCAAGCATGTTGGTGGCTTGTTTTCTAG
Briefly: fluorescence turn-on heat map. To be noted: KCl 150 mM in p53 buffer (80% v/v); NaCl 50 mM in DNA buffer (15% v/v); 4 μM dye, 250 nM DNA; NaPi pH 7.2, DTT, Tris-HCl, 5% DMSO; room temperature.

In data set [6] the test system is pDINP1 (DNA, duplex) TTATAGAACTTGGGGGAACATGTTTACCAA/TTGGTAAACATGTTCCCCCAAGTTCTATAA
Kind of data set: fluorescence turn-on heat map. Conditions: KCl 150 mM in p53 buffer (80% v/v); NaCl 50 mM in DNA buffer (15% v/v); 4 μM dye, 250 nM DNA; NaPi pH 7.2, DTT, Tris-HCl, 5% DMSO; room temperature.

Data set [7] has as its target T1, p53-WT (UniProt P04637 94-360). Briefly: fluorescent intercalator displacement; AO-R; almost no displacement; 1 uM DNA, 10 uM dye; 5% DMSO, 80% p53 buffer (25 mM NaPi pH 7.2, 150 mM KCl, 4 mM DTT), 15% DNA buffer (10 mM Tris-HCl pH 8.0, 50 mM NaCl); room temperature (stated for rotor-DNA mixtures). To be noted: protein: recombinant; tags: N-terminal His6; chain copies: 4; blunt.

For data set [8], the target named is T1, p53-WT. Briefly: fluorescent intercalator displacement; AO-R; p53 concentration-dependent; 1 uM DNA, 10 uM dye; 5% DMSO, 80% p53 buffer (25 mM NaPi pH 7.2, 150 mM KCl, 4 mM DTT), 15% DNA buffer (10 mM Tris-HCl pH 8.0, 50 mM NaCl); room temperature (stated for rotor-DNA mixtures). Conditions: protein: recombinant; tags: N-terminal His6; chain copies: 4; blunt.

Data set [9] concerns the target T1, p53-WT. Briefly: fluorescent intercalator displacement; AO-R; strongest displacement of panel; 1 uM DNA, 10 uM dye; 5% DMSO, 80% p53 buffer (25 mM NaPi pH 7.2, 150 mM KCl, 4 mM DTT), 15% DNA buffer (10 mM Tris-HCl pH 8.0, 50 mM NaCl); room temperature (stated for rotor-DNA mixtures). To be noted: protein: recombinant; tags: N-terminal His6; chain copies: 4; blunt.

T1 sequence (P04637 94-360): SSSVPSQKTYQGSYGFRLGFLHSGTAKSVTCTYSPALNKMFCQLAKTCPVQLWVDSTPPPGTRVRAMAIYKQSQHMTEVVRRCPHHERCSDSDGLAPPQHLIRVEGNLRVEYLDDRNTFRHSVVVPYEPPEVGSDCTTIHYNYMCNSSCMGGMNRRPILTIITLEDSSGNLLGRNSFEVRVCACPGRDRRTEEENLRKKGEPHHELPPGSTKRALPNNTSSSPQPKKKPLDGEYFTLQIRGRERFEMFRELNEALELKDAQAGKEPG

On to `CC[n+]1c(-c2ccccc2)c2cc(N)ccc2c2ccc(N)cc21`, for which the binding result in data set [1] is recorded as “yes”.
Consider `CN(C)c1ccc2cc3ccc(N(C)C)c(/C=C(\C#N)C(=O)O)c3nc2c1`, for which the Kd (usually the concentration at which binding is half-saturated) in data set [2] stood at 4.8 ± 0.8 µM. Moreover, the binding result in [3], in [4] and in [1] was “yes” in each case.
For the molecule `CN(C)c1ccc2cc3ccc(N(C)C)cc3nc2c1`, in data set [2], the Kd was determined as 12.5 ± 1.0 µM. For the same molecule, the binding entry in data set [1] is on record as “yes”.
`CN1C(=Cc2cc[n+](C)c3ccccc23)Sc2ccccc21`: in data set [1], the binding entry is given as “yes”.
With `CN1C(=Cc2cc[n+](CCCN)c3ccccc23)Sc2ccccc21`, the binding result in [1] was “yes”.
On to `C[n+]1ccc(/C=C/c2ccc(-n3c4ccc(/C=C/c5cc[n+](C)cc5)cc4c4cc(/C=C/c5cc[n+](C)cc5)ccc43)cc2)cc1`, for which the binding entry in data set [5] and in [6] was “yes” in each case.
As for `C[n+]1ccc(/C=C/c2ccc3c(c2)c2cc(/C=C/c4cc[n+](C)cc4)ccc2n3-c2ccccc2)cc1`, the binding entry in data set [5], in data set [1] and in data set [6] was “yes” throughout.

B1: Scram (dsDNA)
DNA 1: GTCGTTCTGATCCAGGTGATGTAGTCGACG
DNA 2: CGTCGACTACATCACCTGGATCAGAACGAC
In the case of B1, in the data set with p53-WT [7], the binding result is given as “no binding”.

B2: RGC RE (dsDNA)
DNA 1: CACATGCCTTGCCTGGACTTGCCT
DNA 2: AGGCAAGTCCAGGCAAGGCATGTG
On to B2, for which, in the data set with p53-WT [8], the binding result is recorded as “binds”.

B3: p21 RE (dsDNA)
DNA 1: TAGAGGAAGAAGACTGGGCATGTCTGGGCA
DNA 2: TGCCCAGACATGCCCAGTCTTCTTCCTCTA
On to B3, for which the binding result in the data set with p53-WT [8] was “binds”.

B4: Con-A (dsDNA)
DNA 1: GGGCATGTCCGGGCATGTCC
DNA 2: GGACATGCCCGGACATGCCC
Take B4: in the data set with p53-WT [9], the binding result is on record as “binds”.
